Data: patent US20250121090A1, “Antibody-Drug Conjugates and Methods of Use Thereof” (priority 2021, published 2025)

Assays:
L-82 xenograft = L-82 xenograft with CD30 ADCs; format: in vivo, NOD/SCID mice; details: single i.v. dose 3 mg/kg (equal dosing)
Method: Female NOD/SCID mice were used (8 mice/group) for the study. Animals were inoculated subcutaneously in the flank with 10 million cells in 50% PBS/50% Matrigel. When tumors reached an average volume of 100 mm^3, all animals were treated (Day 0) with a single 10 mg/kg intravenous dose of human IgG. Then, on Day 1, animals were treated with vehicle alone, with unconjugated antibody (3 mg/kg), or with an ADC at 1.5 or 3 mg/kg. The animals were monitored twice weekly for body weight and tumor size. Animals were euthanized when tumors reached 2000 mm^3. ADCs were highly efficacious in this study.

Karpas 299 xenograft = Karpas 299 xenograft study with anti-CD30 ADCs; details: single i.v. dose 3 mg/kg (equal dosing)
Male Sprague-Dawley rats = test: Multi-dose non-GLP rat toxicology study #1; format: in vivo; details: polatuzumab ADCs, DAR ~4, i.v. weekly for 4 doses (days 1, 8, 15, 22), equal payload/equal antibody dosing
Granta 519 xenograft = test: First Granta xenograft study; format: in vivo; details: polatuzumab ADCs, single dose on Day 7, equal payload dosing levels
Description: First Granta Xenograft Study Results: Polatuzumab ADCs carrying MMAE conjugated through five different linker types, including vedotin and CT aldehyde-tagged HIPS conjugates were compared for efficacy at equal payload dosing levels in a Granta 519 xenograft study.

Row | Substance | complete responses (L-82 xenograft) | complete responses (Karpas 299 xenograft) | tolerability (white and red blood cell parameters) (Male Sprague-Dawley rats) | efficacy (tumor growth inhibition) (Granta 519 xenograft)
1 | Adcetris: anti-CD30 ADC used as comparator | 8 complete responses out of 8 mice/group | 6/6 |  | 
2 | polatuzumab vedotin |  |  | marked myelosuppression | longest tumor growth inhibition
